≈ marks a conversion by molar mass, not a printed value.
Conditions: buffer; pH 7.4; 200.0 µM

Row | SMILES | solubility kinetic [µg/mL]
1 | Cc1cccn2c(=O)c3cc(C(=O)NC4CCCC4)sc3nc12 | 4.9 (≈ 15 µM)
2 | O=[N+]([O-])c1ccc(NCCCN2CCOCC2)c2ncccc12 | 2.5 (≈ 7.9 µM)
3 | Cc1ccc(CNC(=O)[C@@H](NC(=O)Cc2ccccc2)C(C)C)cc1 | 7.4 (≈ 21.9 µM)
4 | COC(=O)c1ccc(N2CCOCC2)c(NC(=O)c2ccco2)c1 | 2.8 (≈ 8.48 µM)
5 | CCC(=O)N(CCC(c1ccc(C)cc1)c1ccco1)Cc1ccco1 (stereo unspecified) | 45.6 (≈ 130 µM)
6 | Cc1cccc(C)c1Nc1c(-c2ccccc2O)nc2ncccn12 | 0.4 (≈ 1.21 µM)
7 | CC(=O)c1cc2c(cc1NC(=O)Cc1ccsc1)OCO2 | 10.5 (≈ 34.6 µM)
8 | Fc1ccc(OCCOCCN2CCCC2)cc1 | 28 (≈ 111 µM)
9 | O=C(Nc1cccc(Cl)c1)C1CCN(C(=O)c2cccs2)CC1 | 48.4 (≈ 139 µM)
10 | Cc1cccc(CC(=O)NCCN2CCOCC2)c1 | > 39.4
11 | COc1ccccc1NC(=O)c1ccc(NC(=O)c2ccco2)cc1 | 8.5 (≈ 25.3 µM)
12 | O=C(Nc1cccnc1)c1ccc(C(=O)Nc2cccnc2)cc1 | 0.8 (≈ 2.51 µM)
13 | O=C(COC(=O)c1c(Cl)ccc(Cl)c1Cl)NCC1CCCO1 (stereo unspecified) | > 55
14 | CC1(C)Cc2nc(Cl)c(C(N)=O)cc2CO1 | > 36.1
15 | O=C1CN(S(=O)(=O)c2cc(Cl)ccc2Cl)c2ccccc2N1 | 37.8 (≈ 106 µM)
16 | O=C(OCC(=O)N1CCN(c2ccccc2)CC1)c1ccc[n+]([O-])c1 | 44.5 (≈ 130 µM)
17 | CC(C)[C@H](NC(=O)c1ccccc1Cl)C(=O)OCC(=O)Nc1ccc(S(=O)(=O)N2CCOCC2)cc1 | 40.3 (≈ 74.9 µM)
18 | N#CCCN(C(=O)CSc1n[nH]c(=O)[nH]c1=O)c1ccccc1 | > 49.7
19 | CCCN(CC(=O)Nc1ccccc1OC)C(=O)c1ccc(=O)[nH]c1 | > 51.5
20 | Br.Fc1cccc(CNCC2CCCO2)c1 (stereo unspecified) | 42.2
21 | Cc1cc(C(=O)Nc2ccncc2)c(C)o1 | > 32.4
22 | CC(C)CCn1c(=O)c(C(=O)NCc2ccco2)c(O)c2ccccc21 | < 0.4
23 | COc1cccc(NC(=O)CSc2nc(C3CC3)nc3ccccc23)c1 | < 0.3
24 | Nc1nonc1C(=O)NCCNc1ncccc1[N+](=O)[O-] | 30.2 (≈ 103 µM)
25 | COc1cc(C)ccc1OCC(=O)OCC(=O)NCC1CCCCC1 | > 52.4

Row | SMILES | solubility kinetic [µg/mL]
26 | O=C(NCC1CCCCC1)c1cccnc1Cl | 31.7 (≈ 125 µM)
27 | COc1ccc(CNC(=O)C2CCN(C(=O)c3ccco3)CC2)cc1 | 45.8 (≈ 134 µM)
28 | O=C(NCc1cccnc1)C12CC3CC(CC(Cl)(C3)C1)C2 | 43.2 (≈ 142 µM)
29 | CC1(c2ccc(Cl)cc2)NC(=O)N(CC(=O)NC2CCCCC2)C1=O (stereo unspecified) | > 54.6
30 | CN1CCN(c2nc(-c3ccccc3O)nc3ccccc23)CC1 | 1 (≈ 3.12 µM)
31 | CCSc1nc(O)cc(=O)n1CC | > 30
32 | N#CC1c2ccccc2C=CN1C(=O)c1ccccc1 (stereo unspecified) | 27.6 (≈ 106 µM)
33 | CC(C)CNC(=O)C(=O)NCCCN1CCOCC1 | > 40.7
34 | O=c1cc(N2CCCC2)c2ccccc2o1 | > 32.3
35 | Cc1ccccc1C(=O)NC1CCSC1=O (stereo unspecified) | > 35.3
36 | COc1ccc(-c2cc3ccccc3nc2N)cc1OC | 3 (≈ 10.7 µM)
37 | CCc1nc(Nc2cccc(O)c2)c2oc3ccccc3c2n1.Cl | 0.5
38 | Cc1ccc2nc(SCC(=O)c3ccccc3)nc(=O)n2c1 | 33 (≈ 106 µM)
39 | CCc1sc(C(=O)Nc2nc(C)cs2)cc1C | 7.3 (≈ 27.4 µM)
40 | Oc1ccc(-c2nccc(-c3ccccn3)n2)cc1 | 12.6 (≈ 50.5 µM)
41 | CC(C)C(=O)Nc1ccc([N+](=O)[O-])c(C(F)(F)F)c1 | > 41.4
42 | CCCS(=O)(=O)N1CCN=C1SCc1ccc(F)cc1 | > 47.5
43 | Cc1ccc(OCCCN2C(=O)C(=O)c3cc(C)ccc32)cc1 | < 0.7
44 | Cc1cc(C)cc(C(=O)Oc2cc(C)[nH]c(=O)c2[N+](=O)[O-])c1 | > 45.3
45 | COc1ccc(CC(CC(=O)O)C(=O)NCc2ccccc2)cc1 (stereo unspecified) | 48.6 (≈ 148 µM)
46 | CCOc1ccc(N/C=C/C(=O)c2ccc(OC)c(OC)c2)cc1 | 2.2 (≈ 6.72 µM)
47 | O=C(NC1CCCCC1)C(=S)NCCc1ccccc1 | 1.4 (≈ 4.82 µM)
48 | Cc1ccc(NS(=O)(=O)c2c(C)[nH]c(=O)[nH]c2=O)cc1F | > 47
49 | Cc1[nH]c2ccc(C(=O)Nc3ccncc3)cc2c1C | 34.7 (≈ 131 µM)
50 | O=c1[nH]sc2ccccc12 | 21.7 (≈ 144 µM)

Row | SMILES | solubility kinetic [µg/mL]
51 | O=C(O)c1ccc2c(c1)C(=O)N(c1cc([N+](=O)[O-])ccn1)C2=O | > 47
52 | CC1CCCN(C(=O)COC(=O)c2cc(Br)ccc2O)C1 (stereo unspecified) | 40.1 (≈ 113 µM)
53 | S=C(NCc1ccco1)Nc1ccccc1Cl | > 40
54 | Cl.O=C(COc1ccc(Br)cc1)NCCN1CCCC1 | 51.8
55 | Cl.Clc1cccc(OCCn2ccnc2)c1 | > 38.9
56 | NC(=O)c1coc(-c2ccccc2)n1 | > 28.2
57 | CCn1c(=O)c(C(=O)NCc2ccccc2)c(O)c2ccccc21 | < 0.3
58 | CCOc1ccc(CNc2nc3ccccc3n2C)cc1 | > 42.2
59 | COc1ccccc1CNC(=O)C(=O)Nc1nccs1 | 6 (≈ 20.6 µM)
60 | CC(=O)C1=C(O)C(=O)N(c2ccc(O)cc2)C1c1cccc([N+](=O)[O-])c1 (stereo unspecified) | > 53.1
61 | O=C(NCCCNC(=O)c1ccc(F)cc1)c1ccc(F)cc1 | 30.9 (≈ 97.1 µM)
62 | O=Cc1c(C(=O)O)n(Cc2ccccc2F)c2ccccc12 | > 44.6
63 | COc1ccc(CN2CCCCCC2)cc1 | 26.2 (≈ 119 µM)
64 | Cc1nc2c(ccc3nc(NC(=O)C4CC4)sc32)s1 | 2.8 (≈ 9.68 µM)
65 | Cc1onc(-c2c(Cl)cccc2Cl)c1/C(N)=N/OC(=O)C1CC1 | 47.1 (≈ 133 µM)
66 | N#CC1=C(N)Oc2nc[nH]c(=O)c2C1c1cccs1 (stereo unspecified) | > 40.8
67 | CCSc1nc(-c2cccs2)nc2ccccc12 | 0.3 (≈ 1.1 µM)
68 | O=C(Nc1ccc2c(c1)C(=O)OC2)c1ccc(Cl)cc1Cl | 3 (≈ 9.31 µM)
69 | CC1CCCCN1CC(=O)c1c[nH]c2ccccc12 (stereo unspecified) | > 38.5
70 | CCn1c(CCC(=O)O)nc2cc(S(=O)(=O)N3CCOCC3)ccc21 | > 55.1
71 | S=c1[nH]c2ccccc2n1Cc1ccccc1 | 4.8 (≈ 20 µM)
72 | O=C(Nc1ccccc1N1CCCC1)c1ccccc1F | 19.8 (≈ 69.6 µM)
73 | COc1ccc(C(=O)NCc2ccc(C(=O)O)o2)cc1 | > 41.3
74 | CC(=O)c1cccc(Nc2cc(C)nc3ccc(C)cc23)c1.Cl | 46.9
75 | Cc1cc(C)c(NC(=O)COC(=O)C2CCCCC2)c(C)c1 | 5.6 (≈ 18.5 µM)

Row | SMILES | solubility kinetic [µg/mL]
76 | CCOC(=O)c1csc(NC(=O)C2=COCCO2)n1 | > 42.6
77 | CN(C)c1ccc(-n2cccc2/C=C/[N+](=O)[O-])cc1 | < 0.2
78 | Cn1c(=O)c2c(nc(Oc3ccccc3Cl)n2C)n(C)c1=O | 16 (≈ 49.9 µM)
79 | Cc1ccc(C(=O)Nc2ccc3ccccc3c2)cc1 | < 0.6
80 | COc1cccc(N2C(=O)CC(N3CCc4ccccc4C3)C2=O)c1 (stereo unspecified) | 50.4 (≈ 150 µM)
81 | CN(C)CCCCOc1ccccc1F.O=C(O)C(=O)O | 17.2
82 | O=C(COc1ccc(Cl)cc1Cl)c1ccc[nH]1 | 34.9 (≈ 129 µM)
83 | O=C(Oc1ccc(Br)cc1)c1cccnc1 | 34.3 (≈ 123 µM)
84 | CCc1ccc(NC(=S)Nc2cccc3cnccc23)cc1 | 11.6 (≈ 37.7 µM)
85 | O=C(Nc1ccc(OC(F)(F)F)cc1)c1cnccn1 | 11.3 (≈ 39.9 µM)
86 | CC(CNS(=O)(=O)c1ccccc1)Sc1ncccn1 (stereo unspecified) | > 46.4
87 | Cc1cc(N2C(=O)c3ccccc3C2=O)n(C)n1 | > 36.2
88 | O=C(CN1c2cccc3cccc(c23)S1(=O)=O)NCCc1ccc(F)cc1 | 1.9 (≈ 4.94 µM)
89 | Cc1ccc(S(=O)(=O)c2c[nH]c3cc4c(cc3c2=O)OCO4)cc1 | 2 (≈ 5.82 µM)
90 | CCOC(=O)C(C)Oc1c(C(=O)OC)sc2ncccc12 (stereo unspecified) | 38.2 (≈ 123 µM)
91 | N#CC1(c2ccccc2)CCC(=O)N1Cc1ccccc1 (stereo unspecified) | > 41.5
92 | Cc1ccc(C(=O)Nc2cccc(NC(=O)CN3CCCCC3)c2)cc1 | 41.4 (≈ 118 µM)
93 | O=C(NC(=S)Nc1ccccc1Cl)c1cncc(Br)c1 | 1.2 (≈ 3.24 µM)
94 | CSc1ccccc1NC(=O)CCc1ccccc1 | 35.5 (≈ 131 µM)
95 | CCCC(=O)Oc1ccc(C2NC(=O)c3ccccc3O2)cc1 (stereo unspecified) | < 0.7
96 | Cn1c(O)c(C=Nc2ccccc2)c(=O)n(C)c1=O | 24 (≈ 92.6 µM)
97 | COc1ccc(NC(=S)Nc2ccccn2)cc1 | 2.8 (≈ 10.8 µM)
98 | CC(=NCc1ccc2c(c1)OCO2)c1c(O)n(-c2ccccc2)c(=O)[nH]c1=O | 6.6 (≈ 17.4 µM)
99 | CC(NC(=O)CN1CCN(c2ccc(Cl)cc2)CC1)c1ccccc1 (stereo unspecified) | 8.8 (≈ 24.6 µM)
100 | CC1(C)C(=O)N(c2ccccc2F)C(=O)c2ccccc21 | 37.2 (≈ 131 µM)

Row | SMILES | solubility kinetic [µg/mL]
101 | CC(=O)Nc1ccc(NC(=O)COC(=O)c2cc(S(=O)(=O)N3CCCC3)ccc2O)cc1 | > 69.2
102 | CCOC(=O)c1oc2ccccc2c1NC(=O)CCl | 10.8 (≈ 38.3 µM)
103 | CCCC1(c2ccccc2)NC(=O)N(CC(=O)Nc2ccc(N3CCOCC3)cc2)C1=O (stereo unspecified) | > 65.5
104 | CC1Oc2ccccc2N(CC(=O)NC2CC2)C1=O (stereo unspecified) | > 39
105 | CSc1nc([O-])cc(=O)n1-c1ccc(F)cc1.[K+] | > 43.6
106 | CCOC(=O)c1c(C=O)c2ccccc2n1Cc1ccccc1 | < 0.7
107 | Nc1nc(Cl)cc(-c2ccccc2)n1 | 29.3 (≈ 142 µM)
108 | O=C(NCc1cccs1)C1CC(=O)N(Cc2ccccc2)C1 (stereo unspecified) | > 47.2
109 | Cc1ccc2c(c1)c(-c1csc(N)n1)c(C)n2C | 13.4 (≈ 52.1 µM)
110 | Cc1cc(-c2nnc(CCC(=O)NCc3ccc(F)c(F)c3)o2)no1 | > 52.2
111 | COc1ccc(C2c3ccc(O)cc3Oc3ncn(CC(C)C)c(=N)c32)cc1 (stereo unspecified) | 53.8 (≈ 143 µM)
112 | O=C(NCCCNC(=O)c1cccnc1)c1ccc(Cl)cc1 | 43.3 (≈ 136 µM)
113 | CC1CN(C(=O)CCS(=O)(=O)c2ccccc2)CC(C)O1 (stereo unspecified) | 43.2 (≈ 139 µM)
114 | COc1ccc(S(=O)(=O)N2CCOCC2)cc1NC(=O)CN1CCCc2ccccc21 | 2.9 (≈ 6.51 µM)
115 | COc1ccc(C)cc1NC(=O)CC(NC(C)=O)c1ccccc1 (stereo unspecified) | > 49
116 | COc1ccc(C(=O)N2CCn3c2nc2ccccc23)cc1 | 6.7 (≈ 22.8 µM)
117 | O=Cc1c(C(=O)O)n(Cc2ccccc2Cl)c2ccccc12 | > 47.1
118 | COc1cccc(NC(=O)CN2CCSc3ccccc32)c1 | 25.5 (≈ 81.1 µM)
119 | O=C(/C=C/c1cccc([N+](=O)[O-])c1)OCC(=O)N1CCN(C(=O)c2ccco2)CC1 | 30.9 (≈ 74.7 µM)
120 | O=[N+]([O-])c1c(NCc2ccco2)ccc2nonc12 | 38.4 (≈ 148 µM)
121 | O=C(CCn1c(=O)oc2ccccc21)Nc1ccc(C(=O)O)cc1 | > 48.9

Reference: PubChem BioAssay AID1996
